Laboratory results published in patent US10889563B2, “Deoxyuridine triphosphatase inhibitors” (University of Southern California, priority 2013, dated 2021).
Blank lines part the entries; values can stand above or below the molecule they belong to.

What was measured:
[1] = tested on: HCT116 cells; experiment: Colony formation assay, HCT116; type: cell-based; conditions: for colonies formed, combination with FUdR: HCT116, increasing concentrations of compound plus fixed 0.5 μmol/L FUdR, vs single agents
Method: Colony forming assay showing the ability of colon (SW620, HCT 116), non-small cell lung (A549, H460, H1299 and H358) and breast (MCF7) cancer cells to survive and proliferate following transient 24 hour exposure to single agent PCI 1013, FUdR and combinations. Specifically, cells were seeded at densities between 50 and 100 cells/well in 24-well plates. Twenty-four hours later, cells were treated with increasing concentrations of PCI 10213, a fixed dose of FUdR and combinations of these. After 24 hours, drug was removed, cells were rinsed and allowed to outgrow for 10-14 days. At the conclusion of the outgrowth, cells were fixed in 60% ice cold methanol and stained with 0.1% crystal violet, scanned and counted. Data is presented as percentage of untreated controls (mean±SD). Fraction affected and combination indexes were calculated according to the method of Chou and Talalay where <1 is indicative of a synergistic drug interaction. […]
(§1) In colorectal cancer cells, concentrations of PCI 10213 ranging from 3.1 μmol/L to 50 μmol/L were combined with 0.5 μmol/L FUdR in HCT116 cells and 1 μmol/L FUdR in SW620 cells.

[2] = tested on: SW620 cells; experiment: Colony formation assay, SW620; type: cell-based
Method: (§2) Colony forming assay showing the ability of colon (SW620, HCT 116), non-small cell lung (A549, H460, H1299 and H358) and breast (MCF7) cancer cells to survive and proliferate following transient 24 hour exposure to single agent PCI 1013, FUdR and combinations. Specifically, cells were seeded at densities between 50 and 100 cells/well in 24-well plates. Twenty-four hours later, cells were treated with increasing concentrations of PCI 10213, a fixed dose of FUdR and combinations of these. After 24 hours, drug was removed, cells were rinsed and allowed to outgrow for 10-14 days. At the conclusion of the outgrowth, cells were fixed in 60% ice cold methanol and stained with 0.1% crystal violet, scanned and counted. Data is presented as percentage of untreated controls (mean±SD). Fraction affected and combination indexes were calculated according to the method of Chou and Talalay where <1 is indicative of a synergistic drug interaction.
as §1

[3] = tested on: A549 cells; experiment: Colony formation assay, A549; type: cell-based; conditions: A549, 12.5 and 25 μmol/L compound plus 1 μmol/L FUdR, vs vehicle-treated controls
Method: as §2
(§3) Subsequently, increasing concentrations of PCI 10213 were combined with a fixed dose of FUdR to evaluate the combined drug effect. In NSCLC cells, concentrations of PCI 10213 ranging from 3.1 μmol/L to 25 μmol/L were combined with 1 μmol/L FUdR. […] The effectiveness of this combination was pronounced in A549 and H460 cells where 12.5 and 25 μmol/L PCI 10213 combined with 1 μmol/L FUdR reduced cell viability by >95% compared to vehicle-treated controls.

[4] = tested on: H460 cells; experiment: Colony formation assay, H460; type: cell-based; conditions: H460, 12.5 and 25 μmol/L compound plus 1 μmol/L FUdR, vs vehicle-treated controls
Method: as §2, §3

[5] = tested on: colorectal (HCT116), breast (MCF-7) and non-small cell lung (H1299, A549, H358 and H460) cell line models; experiment: Colony formation assay, all cell lines evaluated; type: cell-based
Method: as §2, §3

[6] = tested on: NSCLC cells (H1299, A549, H358 and H460); experiment: Colony formation assay, NSCLC cells; type: cell-based; conditions: 3.1 to 25 μmol/L compound plus 1 μmol/L FUdR, vs single agents
Method: as §2, §3

[7] = tested on: HCT116 cells; conditions: for single agent activity (growth inhibition vs vehicle): up to 75 μmol/L
[8] = target: T1, Recombinant human deoxyuridine nucleotidohydrolase (dUTPase) (Homo sapiens, UniProt P33316); experiment: Fluorescence-based dUTPase inhibition assay (Example 23; 2.5 ng dUTPase, 10 min at 37° C.); type: biochemical; set-up: made in house
T1 sequence (P33316 1-164 isoform P33316-2): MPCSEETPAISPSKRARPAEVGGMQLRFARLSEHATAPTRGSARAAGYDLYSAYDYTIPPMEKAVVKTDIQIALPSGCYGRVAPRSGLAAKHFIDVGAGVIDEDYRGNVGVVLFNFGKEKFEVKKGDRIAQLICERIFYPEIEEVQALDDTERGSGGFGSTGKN
Text: PCI 10586, 10585 and 10213 were suspended in DMSO at a concentration of 100 mmol/L, fluorodeoxyuridine (FUdR) was obtained from Sigma (St Louis, Mo.) and maintained in sterile double-distilled water at stock concentrations of 50 mmol/L. Recombinant human deoxyuridine nucleotidohydrolase (dUTPase) was expressed and purified as described previously [Please provide reference or confirm as noted above].
The diastereomer compounds were isolated by preparative chiral HPLC and screened in a novel fluorescence-based assay as described in Wilson et al. (2011) Nucleic Acids Res., September 1 39(17). […] The subsequent fluorescence detection step involved five 10 min cycles at 60° C. to completion.

[9] = tested on: A549 cells; experiment: MTS growth inhibition assay, A549; conditions: A549, 72 hours, 100 μmol/L single agent
[10] = tested on: SW620 cells; experiment: MTS growth inhibition assay, SW620; conditions: for single agent activity / decrease in proliferation / single agent activity (growth inhibition vs vehicle): SW620, 72 hours; for single agent activity / decrease in proliferation: 100 μmol/L single agent; for single agent activity (growth inhibition vs vehicle): up to 75 μmol/L
[11] = tested on: H1299 cells; experiment: MTS growth inhibition assay, H1299; conditions: H1299, 72 hours, 100 μmol/L single agent
[12] = target: T1, Recombinant human deoxyuridine nucleotidohydrolase (dUTPase); experiment: Fluorescence-based dUTPase inhibition assay (Example 19; 5 ng dUTPase, 8 min at 37° C.)
[13] = tested on: HCT-8 colorectal cell line model; experiment: Colony formation assay, HCT-8; type: cell-based; conditions: HCT-8, increasing concentrations of compound plus fixed 1 μmol/L FUdR, vs single agents
Method: as §2
Colony forming assays were subsequently performed to evaluate the effectiveness of additional PCI compounds alone and in combination with FUdR at reducing cancer cell viability in the HCT-8 colorectal cell line model. […] Subsequently, increasing concentrations of PCI compounds were combined with a fixed dose of 1 μmol/L FUdR to evaluate the combined drug effect.

inhibition at 1.3 µM ([8]; 1.3 μmol/L compound): 4.7%
inhibition at 2.6 µM ([8]; 2.6 μmol/L compound): 9.6%
inhibition at 5.2 µM ([8]; 5.2 μmol/L compound): 14.5%
inhibition at 10.4 µM ([8]; 10.4 μmol/L compound): 24.9%
inhibition at 20.8 µM ([8]; 20.8 μmol/L compound): 30%
inhibition at 41.7 µM ([8]; 41.7 μmol/L compound): 45.5%
inhibition at 83.3 µM ([8]; 83.3 μmol/L compound): 54.6%
IC50 [12]: 7.2 µM
inhibition at 1.3 µM ([12]; 1.3 umol/L compound): 28%
inhibition at 2.6 µM ([12]; 2.6 umol/L compound): 31.6%
inhibition at 5.2 µM ([12]; 5.2 umol/L compound): 40.9%
inhibition at 10.4 µM ([12]; 10.4 umol/L compound): 60.3%
inhibition at 20.8 µM ([12]; 20.8 umol/L compound): 64.5%
inhibition at 41.7 µM ([12]; 41.7 umol/L compound): 73.8%
% Inhibition ([12]; 83.3 umol/L compound): 86.1%
inhibition at 83.3 µM ([12]; 83.3 umol/L compound): 86%
Structure (SMILES): C[C@@H](NS(=O)(=O)CC/C=C/CC1CCC(=O)NC1=O)c1cccc(OCC2CC2)c1 (mixture of isomers) [PCI 10213]
viability, combination with FUdR ([1]; HCT116, 50 μmol/L compound plus FUdR): complete loss of viability
colonies, all combinations with FUdR ([1]; HCT116, 3.1 to 50 μmol/L compound plus 0.5 μmol/L FUdR): strong synergistic reduction in colonies
reduction of colony formation, combination with FUdR ([1]; HCT116, 12.5 and 25 μmol/L compound plus 0.5 μmol/L FUdR): > 95%
number of colonies formed, single agent ([1]; HCT116, PCI 10213 3.1 to 50 μmol/L or FUdR 0.5 μmol/L alone): neither PCI 10213 or the fixed dose of FUdR single agent had any significant effect on the number of colonies formed
reduction of colony formation, combination with FUdR ([2]; SW620 (strongly FUdR-resistant), 12.5 and 25 μmol/L compound plus FUdR (0.5 μmol/L in the sentence)): > 50%
colonies, all combinations with FUdR ([2]; SW620, 3.1 to 50 μmol/L compound plus 1 μmol/L FUdR): strong synergistic reduction in colonies
number of colonies formed, single agent ([2]; SW620, PCI 10213 3.1 to 50 μmol/L or FUdR 1 μmol/L alone): neither PCI 10213 or the fixed dose of FUdR single agent had any significant effect on the number of colonies formed
reduction of cell viability, combination with FUdR [3]: > 95%
reduction of cell viability, combination with FUdR [4]: > 95%
number of colonies formed, compound alone ([5]; 3.1 to 25 μmol/L single agent): no significant effects on the number of colonies formed
colonies formed, combination with FUdR [6]: highly significant reductions in colonies formed
growth inhibition as a single agent ([7]; HCT116, 25 μmol/L single agent): no detectable effect on growth inhibition
decrease in growth / reduction in proliferation ([7]; HCT116, 72 hours, 100 μmol/L single agent): 28%
single agent activity (growth inhibition vs vehicle) ([7]; HCT116, 72 hours): little to no single agent activity
combined effect with 5-FU on growth inhibition ([7]; HCT116, fixed 25 μmol/L compound plus increasing 5-FU, up to 25 μmol/L 5-FU): additive and synergistic increases in growth inhibition
decrease in growth / reduction in proliferation [9]: ~25%
growth inhibition as a single agent ([10]; SW620, 25 μmol/L single agent): no detectable effect on growth inhibition
single agent activity / decrease in proliferation [10]: ~30%
single agent activity (growth inhibition vs vehicle) [10]: neither PCI 10213 or 10214 had any single agent activity
combined effect with 5-FU on growth inhibition ([10]; SW620, fixed 25 μmol/L compound plus increasing 5-FU, up to 25 μmol/L 5-FU): additive and synergistic increases in growth inhibition
decrease in cell proliferation [11]: 40%

Structure (SMILES): O=c1[nH]cc(F)c(=O)[nH]1 [5-FU, 5-fluorouracil, reference compound]
growth inhibition, 5-FU alone ([7]; HCT116, 0 to 100 μmol/L): dose-dependent increases in growth inhibition
growth inhibition, 5-FU alone ([10]; SW620, 0 to 100 μmol/L): dose-dependent increases in growth inhibition

Structure (SMILES): C[C@@H](NS(=O)(=O)CC/C=C/CC1SC(=O)NC1=O)c1cccc(OCC2CC2)c1 (stereo partly drawn) [PCI 10214]
single agent activity (growth inhibition vs vehicle) ([7]; HCT116, 72 hours): little to no single agent activity
decrease in growth / reduction in proliferation [9]: ~25%
single agent activity / decrease in proliferation [10]: ~30%
single agent activity (growth inhibition vs vehicle) [10]: neither PCI 10213 or 10214 had any single agent activity
decrease in cell proliferation [11]: ≤ 40%

Structure (SMILES): CC[C@@](O)(Cn1nncc1CCCNC1CCC(=O)NC1=O)c1ccc(F)c(OCC2CC2)c1 (stereo partly drawn) [PCI 10927]
colonies formed / combined drug effect with FUdR [13]: Substantial reductions in colonies formed

Structure (SMILES): CC[C@@](O)(Cn1nncc1CCCCc1cnc2c(c1)CCC(=O)N2)c1ccc(F)c(OCC2CC2)c1 [PCI 10928]
colonies formed / combined drug effect with FUdR [13]: Substantial reductions in colonies formed

Structure (SMILES): CC[C@@](O)(Cn1nncc1CCCCC1Cc2cccc(OC)c2NC1=O)c1ccc(F)c(OCC2CC2)c1 (stereo partly drawn) [PCI 10929]
colonies formed / combined drug effect with FUdR [13]: Substantial reductions in colonies formed

Structure (SMILES): CC[C@@](O)(Cn1nncc1CCCCC1C(=O)Nc2ncccc21)c1ccc(F)c(OCC2CC2)c1 (stereo partly drawn) [PCI 10930]
colonies formed / combined drug effect with FUdR [13]: Substantial reductions in colonies formed

Structure (SMILES): CC[C@@](O)(Cn1nncc1CCCCNC1(C)CCC(=O)NC1=O)c1ccc(F)c(OCC2CC2)c1 (stereo partly drawn) [PCI 10933]
colonies formed / combined drug effect with FUdR [13]: Substantial reductions in colonies formed

Structure (SMILES): CC[C@@](O)(Cn1nncc1CCCCn1ccc(=O)[nH]c1=O)c1ccc(F)c(OCC2CC2)c1 [PCI 10950, reference compound]
colonies formed / combined drug effect with FUdR [13]: strong synergy
combined drug effect with fixed doses of FUdR ([5]; all cell lines examined (cell lines not named at b507)): strong synergy

Structure (SMILES): CC[C@@](O)(Cn1nncc1CCCCC1CCC(=O)NC1=O)c1ccc(F)c(OCC2CC2)c1 (stereo partly drawn) [PCI 10951]
colonies formed, combination with FUdR [1]: Substantial reductions in colonies formed
colonies formed / combined drug effect with FUdR [13]: Substantial reductions in colonies formed

Structure (SMILES): CC[C@@](O)(Cn1nncc1CCCCCC1CCC(=O)NC1=O)c1ccc(F)c(OCC2CC2)c1 (stereo partly drawn) [PCI 10952]
colonies formed, combination with FUdR [1]: modest reductions in colonies formed
